Laboratory results from US9452986B2, “6-heteroaryloxy- or 6-aryloxy-quinoline-2-carboxamides and method of use” (AbbVie Inc., priority 2014, dated 2016).
Like-named read-outs stand apart in the source and are kept apart here.

Biological target: recombinant human Nav1.7 (Homo sapiens (Human), UniProt Q15858)
Experiment: FRET-based membrane potential assay, recombinant human sodium channel Nav1.7
Type: cell-based
Conditions: read-out: FRET-Membrane Potential Nav1.7 IC50
Outline: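 Channel activation used veratridine at its EC80, set by a dilution curve each experiment, together with Leiurus scorpion venom, added 3 min after compound. Membrane-potential ratio signals from FLIPR Tetra in HEPES-buffered HBSS were fitted to a four-parameter Hill equation for percent inhibition and IC50.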

[1] = HEK293 cells stably expressing recombinant human Nav1.7, veratridine + scorpion venom depolarization

recombinant human Nav1.7, sequence (Q15858 whole entry): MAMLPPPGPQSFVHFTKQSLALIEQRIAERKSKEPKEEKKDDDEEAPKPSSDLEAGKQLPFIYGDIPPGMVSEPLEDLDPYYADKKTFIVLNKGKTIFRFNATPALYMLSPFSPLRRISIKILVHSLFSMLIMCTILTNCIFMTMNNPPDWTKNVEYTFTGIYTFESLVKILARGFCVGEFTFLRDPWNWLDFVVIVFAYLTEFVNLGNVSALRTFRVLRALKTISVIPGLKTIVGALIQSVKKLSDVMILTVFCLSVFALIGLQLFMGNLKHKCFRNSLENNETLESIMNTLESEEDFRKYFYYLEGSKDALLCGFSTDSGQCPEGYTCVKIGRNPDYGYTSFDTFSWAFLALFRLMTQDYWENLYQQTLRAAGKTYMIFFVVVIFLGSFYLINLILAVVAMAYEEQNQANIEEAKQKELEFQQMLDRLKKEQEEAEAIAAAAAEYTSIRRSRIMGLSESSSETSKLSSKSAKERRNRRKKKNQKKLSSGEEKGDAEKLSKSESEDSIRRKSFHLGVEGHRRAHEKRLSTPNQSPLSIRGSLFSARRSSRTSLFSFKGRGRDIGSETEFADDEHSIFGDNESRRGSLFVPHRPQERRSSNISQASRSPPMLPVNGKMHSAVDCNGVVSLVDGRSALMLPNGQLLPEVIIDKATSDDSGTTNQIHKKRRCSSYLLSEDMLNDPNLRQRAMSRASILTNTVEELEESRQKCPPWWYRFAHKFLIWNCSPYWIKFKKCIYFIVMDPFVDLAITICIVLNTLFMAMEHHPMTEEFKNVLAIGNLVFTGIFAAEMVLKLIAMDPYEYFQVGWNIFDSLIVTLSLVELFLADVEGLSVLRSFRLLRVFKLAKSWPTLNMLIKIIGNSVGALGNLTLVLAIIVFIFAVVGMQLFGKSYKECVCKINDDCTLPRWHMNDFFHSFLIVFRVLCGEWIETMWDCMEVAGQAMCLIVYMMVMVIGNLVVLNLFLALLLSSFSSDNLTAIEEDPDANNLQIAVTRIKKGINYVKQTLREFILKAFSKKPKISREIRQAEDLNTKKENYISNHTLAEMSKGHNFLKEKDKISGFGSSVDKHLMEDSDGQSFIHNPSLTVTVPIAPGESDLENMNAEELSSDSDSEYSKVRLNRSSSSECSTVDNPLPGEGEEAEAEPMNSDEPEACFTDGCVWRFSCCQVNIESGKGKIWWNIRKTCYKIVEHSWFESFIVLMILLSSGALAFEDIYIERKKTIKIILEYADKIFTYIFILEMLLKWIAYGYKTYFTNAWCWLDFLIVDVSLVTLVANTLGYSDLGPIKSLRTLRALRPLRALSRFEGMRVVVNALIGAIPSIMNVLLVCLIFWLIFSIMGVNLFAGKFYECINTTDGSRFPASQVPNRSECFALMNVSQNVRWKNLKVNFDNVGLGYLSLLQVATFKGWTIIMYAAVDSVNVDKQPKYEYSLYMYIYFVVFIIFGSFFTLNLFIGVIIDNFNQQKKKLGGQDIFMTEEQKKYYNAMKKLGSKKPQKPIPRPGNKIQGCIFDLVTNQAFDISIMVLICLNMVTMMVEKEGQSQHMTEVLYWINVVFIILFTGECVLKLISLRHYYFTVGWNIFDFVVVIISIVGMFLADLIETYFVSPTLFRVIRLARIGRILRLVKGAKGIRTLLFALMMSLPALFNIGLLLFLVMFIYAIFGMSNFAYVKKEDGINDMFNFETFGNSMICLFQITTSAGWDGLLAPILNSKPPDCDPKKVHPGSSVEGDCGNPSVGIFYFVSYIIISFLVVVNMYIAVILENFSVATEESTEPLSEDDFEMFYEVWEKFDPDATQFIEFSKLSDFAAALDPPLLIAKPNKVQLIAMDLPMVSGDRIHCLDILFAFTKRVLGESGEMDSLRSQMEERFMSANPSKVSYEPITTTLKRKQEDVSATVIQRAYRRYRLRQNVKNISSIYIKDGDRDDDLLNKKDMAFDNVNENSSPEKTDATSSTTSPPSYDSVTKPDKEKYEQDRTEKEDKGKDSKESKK

| SMILES | IC50 [1] | IC50 |
| --- | --- | --- |
| CS(=O)(=O)NC(=O)c1ccc2cc(Oc3ccc(C(F)(F)F)cn3)ccc2n1 [Example 577, N-(methylsulfonyl)-6-{[5-(trifluoromethyl)pyridin-2-yl]oxy}quinoline-2-carboxamide] | 10.1 µM |  |
| N[C@H]1CC[C@@H]2CN(C(=O)c3ccc4cc(Oc5ccc(C(F)(F)F)cn5)ccc4n3)C[C@@H]21 [Example 248, [(3aR,4S,6aS)-4-aminohexahydrocyclopenta[c]pyrrol-2(1H)-yl](6-{[5-(trifluoromethyl)pyridin-2-yl]oxy}quinolin-2-yl)methanone] | 17.3 µM |  |
| O=C(c1ccc2cc(Oc3ccc(C(F)(F)F)nc3)ccc2n1)N1CC=CC1 [Example 539, 2,5-dihydro-1H-pyrrol-1-yl(6-{[6-(trifluoromethyl)pyridin-3-yl]oxy}quinolin-2-yl)methanone] | > 20 µM |  |
| CN(CC(=O)NC1CC1)C(=O)c1ccc2cc(Oc3ccc(C(F)(F)F)nc3)ccc2n1 [Example 522, N-[2-(cyclopropylamino)-2-oxoethyl]-N-methyl-6-{[6-(trifluoromethyl)pyridin-3-yl]oxy}quinoline-2-carboxamide] |  | 10.7 µM |
| O=C(c1ccc2cc(Oc3ccc(C(F)(F)F)cc3)ccc2n1)N1CCNCC1 [Example 249, piperazin-1-yl {6-[4-(trifluoromethyl)phenoxy]quinolin-2-yl}methanone] |  | 0.902 µM |
| CC(C)C(O)CNC(=O)c1ccc2cc(Oc3ccc(C#N)cc3)ccc2n1 (stereo not drawn) [Example 135, 6-(4-cyanophenoxy)-N-(2-hydroxy-3-methylbutyl)quinoline-2-carboxamide] |  | 0.688 µM |
| CC[C@H]1CN(C(=O)c2ccc3cc(Oc4ccc(C(F)(F)F)cn4)ccc3n2)CCN1 [Example 273, [(3S)-3-ethylpiperazin-1-yl](6-{[5-(trifluoromethyl)pyridin-2-yl]oxy}quinolin-2-yl)methanone] | 0.488 µM |  |
| NC(=O)CNC(=O)c1ccc2cc(Oc3ccc(C(F)(F)F)cn3)ccc2n1 [Example 150, N-(2-amino-2-oxoethyl)-6-{[5-(trifluoromethyl)pyridin-2-yl]oxy}quinoline-2-carboxamide] | 2.28 µM |  |
| O=C(c1ccc2cc(Oc3ccc(C(F)(F)F)cn3)ccc2n1)N1CCC(C(F)(F)F)C1 (stereo not drawn) [Example 414, (6-{[5-(trifluoromethyl)pyridin-2-yl]oxy}quinolin-2-yl)[3-(trifluoromethyl)pyrrolidin-1-yl]methanone] | 5.02 µM |  |
| O=C(c1ccc2cc(Oc3ccc(C(F)(F)F)cn3)ccc2n1)N1CCc2ccccc2C1 [Example 253, 3,4-dihydroisoquinolin-2(1H)-yl(6-{[5-(trifluoromethyl)pyridin-2-yl]oxy}quinolin-2-yl)methanone] | > 20 µM |  |
| CC(C)[C@H]1CN(C(=O)c2ccc3cc(Oc4ccc(C(F)(F)F)cn4)ccc3n2)CCN1 [Example 274, [(3S)-3-isopropylpiperazin-1-yl](6-{[5-(trifluoromethyl)pyridin-2-yl]oxy}quinolin-2-yl)methanone] | 0.304 µM |  |
| CNC(=O)CNC(=O)c1ccc2cc(Oc3ccc(C#N)cc3)ccc2n1 [Example 145, 6-(4-cyanophenoxy)-N-[2-(methylamino)-2-oxoethyl]quinoline-2-carboxamide] | 3.09 µM |  |
| CCN(CC)C(=O)CNC(=O)c1ccc2cc(Oc3ccc(C(F)(F)F)nc3)ccc2n1 [Example 517, N-[2-(diethylamino)-2-oxoethyl]-6-{[6-(trifluoromethyl)pyridin-3-yl]oxy}quinoline-2-carboxamide] | 0.37 µM |  |
| Cc1ccccc1NC(=O)CCNC(=O)c1ccc2cc(Oc3ccc(C(F)(F)F)cn3)ccc2n1 [Example 500, N-{3-[(2-methylphenyl)amino]-3-oxopropyl}-6-{[5-(trifluoromethyl)pyridin-2-yl]oxy}quinoline-2-carboxamide] | 0.293 µM |  |
| O=C(c1ccc2cc(Oc3ccc(C(F)(F)F)cn3)ccc2n1)N1CCC(F)(COc2ccccc2)C1 (stereo not drawn) [Example 491, [3-fluoro-3-(phenoxymethyl)pyrrolidin-1-yl](6-{[5-(trifluoromethyl)pyridin-2-yl]oxy}quinolin-2-yl)methanone] | 4.99 µM |  |
| CC(C)NC(=O)CN(C)C(=O)c1ccc2cc(Oc3ccc(C(F)(F)F)nc3)ccc2n1 [Example 525, N-[2-(isopropylamino)-2-oxoethyl]-N-methyl-6-{[6-(trifluoromethyl)pyridin-3-yl]oxy}quinoline-2-carboxamide] | 6.65 µM |  |
| CCOCCNC(=O)c1ccc2cc(Oc3ccc(C#N)cc3)ccc2n1 [Example 108, 6-(4-cyanophenoxy)-N-(2-ethoxyethyl)quinoline-2-carboxamide] | 2.41 µM |  |
| O=C(NC1CCS(=O)(=O)C1)c1ccc2cc(Oc3ncc(C(F)(F)F)cn3)ccc2n1 (stereo not drawn) [Example 155, N-(1,1-dioxidotetrahydrothiophen-3-yl)-6-{[5-(trifluoromethyl)pyrimidin-2-yl]oxy}quinoline-2-carboxamide] |  | 5.38 µM |
| O=C(c1ccc2cc(Oc3ccc(C(F)(F)F)cn3)ccc2n1)N1CC(F)(F)C[C@H]1CO [Example 497, [(2S)-4,4-difluoro-2-(hydroxymethyl)pyrrolidin-1-yl](6-{[5-(trifluoromethyl)pyridin-2-yl]oxy}quinolin-2-yl)methanone] | 3.43 µM |  |
| O=C1NCC(=O)N2CCN(C(=O)c3ccc4cc(Oc5ccc(C(F)(F)F)cn5)ccc4n3)CC12 (stereo not drawn) [Example 171, 8-[(6-{[5-(trifluoromethyl)pyridin-2-yl]oxy}quinolin-2-yl)carbonyl]tetrahydro-2H-pyrazino[1,2-a]pyrazine-1,4(3H,6H)-dione] | 7.95 µM |  |
| N#Cc1ccc(Oc2ccc3nc(C(=O)NCCS(N)(=O)=O)ccc3c2)cc1 [Example 147, 6-(4-cyanophenoxy)-N-(2-sulfamoylethyl)quinoline-2-carboxamide] | 4.28 µM |  |
| CC(C)(O)c1ccc(Oc2ccc3nc(C(=O)N4CCNCC4)ccc3c2)cc1 [Example 209, {6-[4-(2-hydroxypropan-2-yl)phenoxy]quinolin-2-yl}(piperazin-1-yl)methanone] | 8.86 µM |  |
| O=C(c1ccc2cc(Oc3ccc(C(F)(F)F)cn3)ccc2n1)N1CCN(C(=O)C2CC2)CC1 [Example 290, cyclopropyl{4-[(6-{[5-(trifluoromethyl)pyridin-2-yl]oxy}quinolin-2-yl)carbonyl]piperazin-1-yl}methanone] | 9.86 µM |  |
| CO[C@H]1CCN(C(=O)c2ccc3cc(Oc4ccc(C(F)(F)F)cn4)ccc3n2)C1 [Example 589, [(3S)-3-methoxypyrrolidin-1-yl](6-{[5-(trifluoromethyl)pyridin-2-yl]oxy}quinolin-2-yl)methanone] |  | 4.07 µM |
| O=C(c1ccc2cc(Oc3ccc(C(F)(F)F)cn3)ccc2n1)N1CCC12CNC2 [Example 279, 1,6-diazaspiro[3.3]hept-1-yl(6-{[5-(trifluoromethyl)pyridin-2-yl]oxy}quinolin-2-yl)methanone] | 5.68 µM |  |
| O=C(NCC(=O)N1CC[C@@H](O)C1)c1ccc2cc(Oc3ccc(C(F)(F)F)cn3)ccc2n1 [Example 559, N-{2-[(3R)-3-hydroxypyrrolidin-1-yl]-2-oxoethyl}-6-{[5-(trifluoromethyl)pyridin-2-yl]oxy}quinoline-2-carboxamide] |  | 3.02 µM |
| O=C(NCCCc1ccccn1)c1ccc2cc(Oc3ccc(C(F)(F)F)cn3)ccc2n1 [Example 607, N-[3-(pyridin-2-yl)propyl]-6-{[5-(trifluoromethyl)pyridin-2-yl]oxy}quinoline-2-carboxamide] | 0.91 µM |  |
